Measured values from publication PMC3072440 (Chemical research in toxicology, 2010).
Read-outs that look alike come from different tables or passages of the source.

Tests used:
human P450 1A1 = target: T1, human P450 1A1 (Homo sapiens, UniProt P04798); test: Inhibition of P450 1A1-dependent EROD activity; format: biochemical
T1 sequence (P04798 1-512): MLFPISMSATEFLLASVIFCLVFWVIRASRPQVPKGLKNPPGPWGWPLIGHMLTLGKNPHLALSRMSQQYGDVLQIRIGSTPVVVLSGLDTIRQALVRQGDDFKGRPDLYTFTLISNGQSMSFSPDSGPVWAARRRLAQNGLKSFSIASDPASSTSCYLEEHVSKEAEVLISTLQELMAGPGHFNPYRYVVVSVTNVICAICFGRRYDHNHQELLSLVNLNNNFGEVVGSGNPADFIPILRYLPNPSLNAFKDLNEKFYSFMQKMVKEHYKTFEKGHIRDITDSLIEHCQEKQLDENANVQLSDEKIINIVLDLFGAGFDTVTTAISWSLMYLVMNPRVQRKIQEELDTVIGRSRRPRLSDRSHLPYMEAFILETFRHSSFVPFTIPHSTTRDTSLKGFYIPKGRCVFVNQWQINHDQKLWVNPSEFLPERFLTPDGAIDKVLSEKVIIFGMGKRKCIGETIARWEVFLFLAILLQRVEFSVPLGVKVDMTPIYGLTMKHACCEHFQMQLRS

human P450 3A4 [1] = target: T2, human P450 3A4 (Homo sapiens, UniProt P08684); test: Spectral binding titration with purified P450 3A4; details: decreases in α and β bands monitored; up to 100 µM
CYP3A4 (P450 3A4) = CYP3A4 (P450 3A4) (Homo sapiens, UniProt P08684); test: Inhibition of P450 3A4-dependent midazolam 4-hydroxylation; details: human, pH 7.4, probe midazolam (0.1 mM), 4-hydroxylation
human P450 2C9 = human P450 2C9 (Homo sapiens, UniProt P11712); test: Inhibition of P450 2C9-dependent flurbiprofen 4’-hydroxylation
human P450 3A4 [2] = target: T2, human P450 3A4
human P450 3A4 [3] = target: T2, human P450 3A4; remark: listed apart in the source
human P450 3A4 [4] = target: T2, human P450 3A4; test: Effect on P450 3A4-catalyzed midazolam 1’-hydroxylation

T2 sequence (P08684 whole entry): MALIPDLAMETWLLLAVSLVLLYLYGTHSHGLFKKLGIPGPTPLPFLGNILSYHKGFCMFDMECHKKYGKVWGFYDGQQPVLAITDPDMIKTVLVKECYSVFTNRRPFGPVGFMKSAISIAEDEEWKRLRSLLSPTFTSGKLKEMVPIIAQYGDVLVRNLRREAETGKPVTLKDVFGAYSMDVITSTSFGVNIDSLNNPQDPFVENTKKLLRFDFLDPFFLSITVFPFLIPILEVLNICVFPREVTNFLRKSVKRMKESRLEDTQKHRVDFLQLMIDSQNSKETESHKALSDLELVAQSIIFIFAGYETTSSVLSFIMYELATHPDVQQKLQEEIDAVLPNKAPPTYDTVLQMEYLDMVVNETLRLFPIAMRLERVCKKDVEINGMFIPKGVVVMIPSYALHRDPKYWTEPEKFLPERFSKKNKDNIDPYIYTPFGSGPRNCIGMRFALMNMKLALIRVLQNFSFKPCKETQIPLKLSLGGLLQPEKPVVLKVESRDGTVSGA
Sequence of human P450 2C9 (P11712 whole entry): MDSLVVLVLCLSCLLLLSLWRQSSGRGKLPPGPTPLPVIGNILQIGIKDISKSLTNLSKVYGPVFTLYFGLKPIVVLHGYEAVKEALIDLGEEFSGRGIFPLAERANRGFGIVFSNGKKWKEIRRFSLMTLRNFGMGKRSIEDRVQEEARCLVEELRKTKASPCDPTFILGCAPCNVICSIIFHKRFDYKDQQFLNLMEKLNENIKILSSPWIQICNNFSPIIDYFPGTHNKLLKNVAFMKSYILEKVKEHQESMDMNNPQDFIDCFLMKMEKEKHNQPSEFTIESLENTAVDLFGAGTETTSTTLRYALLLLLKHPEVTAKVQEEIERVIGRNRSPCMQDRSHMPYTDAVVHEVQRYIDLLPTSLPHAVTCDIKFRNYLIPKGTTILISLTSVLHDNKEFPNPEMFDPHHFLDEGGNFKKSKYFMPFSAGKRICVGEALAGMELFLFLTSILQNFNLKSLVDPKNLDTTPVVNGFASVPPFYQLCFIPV
Sequence of CYP3A4 (P450 3A4) (P08684 whole entry): as the sequence (P08684 whole entry) above

IC50 (human P450 1A1)	spectral change / Type I binding spectra with P450 3A4, in words (human P450 3A4 [1])	IC50 (CYP3A4 (P450 3A4))	inhibition of P450 2C9 flurbiprofen 4’-hydroxylation, in words (human P450 2C9)	effect on formation of 1’-hydroxymidazolam by P450 3A4, in words (human P450 3A4 [3])	SMILES	inhibition of P450 3A4 midazolam 4-hydroxylation, in words (human P450 3A4 [2])	effect on formation of 1’-hydroxymidazolam by P450 3A4, in words (human P450 3A4 [4])
5.8 µM	induced spectral changes	16 µM	strong inhibitors	–	COc1cccc(-c2cc(=O)c3c(O)cc(O)cc3o2)c1 [3’M57DHF, 3’-methoxy-5,7-dihydroxyflavone]	–	–
–	–	–	–	slightly activated	O=c1cc(-c2ccc(O)cc2)oc2cc(O)cc(O)c12 [4’57THF, 4’5,7-trihydroxyflavone]	significantly inhibited	–
–	–	–	–	–	O=C1CC(c2ccccc2)Oc2ccccc21 (centres unmarked) [flavanone]	inhibited the formation of 4-hydroxymidazolam	enhanced the formation of 1’-hydroxymidazolam
